Bounds are passed on as bounds.

As a reminder, the EC50 is the concentration needed to bring the measured effect to its halfway point. A word on the melting point: it is the temperature, or range, at which the solid turns liquid. In general, IC50 refers to the concentration that inhibits the measured activity by half. Higher therefore signals weaker potency in that assay.

Series [1] deals with genotype 1b-Con1 subgenomic replicon cell line. As to the kind of experiment: microbe, parasite or virus in culture. In kind it is cell-based, HCV. To be noted: Hepatitis C virus, read-out: EC50 1b.
Series [2] deals with genotype 1a-H77 subgenomic replicon cell line. As to the kind of experiment: microbe, parasite or virus in culture. To be noted: Hepatitis C virus, read-out: EC50 1a. In kind it is cell-based, HCV.
Series [3] has as its target T1, HCV polymerase 1A (Δ21 NS5B, H77) (Hepatitis C virus genotype 1a, UniProt P27958).
T1 construct: 20 to 50 nM Δ21 NS5B
As to the kind of experiment: biochemical. To be noted: IC50 1a. Summed up:
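Incorporation of 1 μM ^3H-UTP, with 20 μM each of CTP and ATP on 5 nM template RNA, ran 2–4 h at room temperature. Spermine-precipitated product was filtered and scintillation-counted. IC50 came from tight-binding non-linear regression of cpm against inhibitor concentration.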

For series [4], the target named is T2, HCV polymerase 1B (Δ21 NS5B, BK) (Hepatitis C virus genotype 1b, UniProt P26663).
T2 construct: 20 to 50 nM Δ21 NS5B
T2 sequence (P26663 2420-2989, stated change not applied): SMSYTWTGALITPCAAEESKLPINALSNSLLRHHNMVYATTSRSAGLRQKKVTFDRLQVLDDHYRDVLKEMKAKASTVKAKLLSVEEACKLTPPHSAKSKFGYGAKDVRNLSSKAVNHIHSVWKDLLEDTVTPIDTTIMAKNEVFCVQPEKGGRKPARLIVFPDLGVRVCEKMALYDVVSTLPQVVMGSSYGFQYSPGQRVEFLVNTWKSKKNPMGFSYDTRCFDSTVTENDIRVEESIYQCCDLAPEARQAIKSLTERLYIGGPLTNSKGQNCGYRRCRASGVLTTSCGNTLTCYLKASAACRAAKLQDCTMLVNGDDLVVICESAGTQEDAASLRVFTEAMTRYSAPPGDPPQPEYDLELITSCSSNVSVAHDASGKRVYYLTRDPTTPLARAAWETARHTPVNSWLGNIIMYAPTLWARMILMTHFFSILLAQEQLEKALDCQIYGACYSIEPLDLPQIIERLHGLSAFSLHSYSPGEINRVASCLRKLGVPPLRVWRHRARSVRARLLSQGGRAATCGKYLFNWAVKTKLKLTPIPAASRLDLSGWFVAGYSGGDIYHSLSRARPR
As to the kind of experiment: biochemical. Summed up: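 Δ21 NS5B (genotype 1b, BK […]) preincubated 15 min RT with inhibitor, 2 mM MnCl2, pH 7.4, 60–125 μM GTP; started with 20 μM CTP/ATP, 1 μM 3H-UTP, 5 nM template RNA, run 2–4 h RT. Spermine-precipitated RNA filter-captured, scintillation counted; IC50 from tight-binding (Morrison) fit.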

The test system of a further series is HCV. To be noted: hepatitis C treatment regimens, background; cited from earlier work.

T1 sequence (P27958 2421-2990, stated change not applied): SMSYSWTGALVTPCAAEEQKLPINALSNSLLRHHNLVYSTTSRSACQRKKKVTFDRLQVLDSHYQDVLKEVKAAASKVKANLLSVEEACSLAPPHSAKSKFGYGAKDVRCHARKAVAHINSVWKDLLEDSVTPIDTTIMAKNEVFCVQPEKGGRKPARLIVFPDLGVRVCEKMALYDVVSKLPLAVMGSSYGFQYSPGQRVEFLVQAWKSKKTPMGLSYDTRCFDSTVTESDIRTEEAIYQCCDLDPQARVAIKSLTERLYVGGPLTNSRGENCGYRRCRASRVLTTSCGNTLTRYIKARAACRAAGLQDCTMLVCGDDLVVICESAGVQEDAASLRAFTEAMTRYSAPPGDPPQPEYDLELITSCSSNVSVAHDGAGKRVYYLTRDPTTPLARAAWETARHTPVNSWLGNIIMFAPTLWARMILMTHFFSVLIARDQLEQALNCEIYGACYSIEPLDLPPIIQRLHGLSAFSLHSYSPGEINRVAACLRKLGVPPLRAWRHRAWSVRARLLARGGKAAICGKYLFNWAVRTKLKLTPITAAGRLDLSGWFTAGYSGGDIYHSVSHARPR

For the compound `CC(C)(C)c1cc(-n2ccc(=O)[nH]c2=O)cc(-c2ccc3cc(NS(C)(=O)=O)ccc3c2)c1Cl` [IB-L0-2.14, N-(6-(3-tert-butyl-2-chloro-5-(2,4-dioxo-3,4-dihydropyrimidin-1(2H)-yl)phenyl)naphthalen-2-yl)methanesulfonamide], the melting point was greater than 280 °C. In addition, in series [1], the EC50 lay within 10 to 100 nM. Besides, in series [2], the EC50 fell in the range of 100 to 1000 nM.
`CCOc1c(-c2ccc3cc(NS(C)(=O)=O)ccc3c2)cc(-n2ccc(=O)[nH]c2=O)cc1C(C)(C)C` [IB-L0-2.23, N-(6-(3-tert-butyl-5-(2,4-dioxo-3,4-dihydropyrimidin-1(2H)-yl)-2-ethoxyphenyl)naphthalen-2-yl)methanesulfonamide] came in with a melting point of 196 to 202 °C. For the same compound, in series [1], the concentration for a half-maximal effect (EC50) lay within 10 to 100 nM. Also, the EC50 in series [2] is 100 to 1000 nM.
On to `COc1c(-c2ccc3cc(NS(C)(=O)=O)ccc3c2)cc(-n2ccc(=O)[nH]c2=O)cc1C(C)(C)CO` [IB-L0-2.54, N-(6-(5-(2,4-dioxo-3,4-dihydropyrimidin-1(2H)-yl)-3-(1-hydroxy-2-methylpropan-2-yl)-2-methoxyphenyl)naphthalen-2-yl)methanesulfonamide], for which the melting point lay within 256 to 257 °C. Also, in series [1], the concentration giving a half-maximal response (EC50) lay within 10 to 100 nM. For the same compound, in series [2], the EC50 was in the range of 10 to 100 nM.
Compound `COc1c(-c2ccc3cc(NS(C)(=O)=O)ccc3c2)cc(-n2ccc(=O)[nH]c2=O)cc1-c1ccc(C)o1` [IB-L0-2.58, N-(6-(5-(2,4-dioxo-3,4-dihydropyrimidin-1(2H)-yl)-2-methoxy-3-(5-methylfuran-2-yl)phenyl)naphthalen-2-yl)methanesulfonamide] returned a melting point of 174 to 178 °C. The EC50 in series [1] is less than 10 nM. Moreover, the EC50 in series [2] was in the range of 10 to 100 nM.
In the same order, the values of `COc1c(-c2ccc3cc(NS(C)(=O)=O)ccc3c2)cc(-n2ccc(=O)[nH]c2=O)cc1C(F)(F)C(F)(F)F` [IB-L0-2.60, N-(6-(5-(2,4-dioxo-3,4-dihydropyrimidin-1(2H)-yl)-2-methoxy-3-(perfluoroethyl)phenyl)naphthalen-2-yl)methanesulfonamide] are 162 to 165 °C, 10 to 100 nM and 100 to 1000 nM.
Compound `COc1c(-c2ccc3cc(NS(C)(=O)=O)ccc3c2)cc(-n2ccc(=O)[nH]c2=O)cc1C(C)(C)C(=O)O` [IB-L0-2.77, 2-(5-(2,4-dioxo-3,4-dihydropyrimidin-1(2H)-yl)-2-methoxy-3-(6-(methylsulfonamido)naphthalen-2-yl)phenyl)-2-methylpropanoic acid] displayed a melting point greater than 300 °C.
`COc1c(C#C[Si](C)(C)C)cc(-n2ccc(=O)[nH]c2=O)cc1-c1ccc2cc(NS(C)(=O)=O)ccc2c1` [IB-L0-2.78, N-(6-(5-(2,4-dioxo-3,4-dihydropyrimidin-1(2H)-yl)-2-methoxy-3-((trimethylsilyl)ethynyl)phenyl)naphthalen-2-yl)methanesulfonamide]: the melting point fell in the range of 175 to 178 °C.
As for `COc1c(C#Cc2ccc(NS(C)(=O)=O)cc2C(=O)N2CCOCC2)cc(-n2ccc(=O)[nH]c2=O)cc1C(C)(C)C` [IB-L2-1.11, N-(4-((3-tert-butyl-5-(2,4-dioxo-3,4-dihydropyrimidin-1(2H)-yl)-2-methoxyphenyl)ethynyl)-3-(morpholine-4-carbonyl)phenyl)methanesulfonamide], the concentration for half-maximal inhibition (IC50) in series [3] and in series [4] was 10 to 100 nM throughout. Also, the figures for the concentration giving a half-maximal response (EC50) in series [1] and in series [2] were 10 to 100 nM and 100 to 1000 nM, respectively.
With `COc1c(C#Cc2ccc(NS(C)(=O)=O)cc2NC(C)=O)cc(-n2ccc(=O)[nH]c2=O)cc1C(C)(C)C` [IB-L2-1.12, N-(2-((3-tert-butyl-5-(2,4-dioxo-3,4-dihydropyrimidin-1(2H)-yl)-2-methoxyphenyl)ethynyl)-5-(methylsulfonamido)phenyl)acetamide], the IC50 in series [3] and in series [4] was 10 to 100 nM in each case. In addition, the concentration for a half-maximal effect (EC50) fell in the range of 10 to 100 nM in series [1] and 100 to 1000 nM in series [2].
For the compound `COc1c(I)cc(-n2ccc(=O)[nH]c2=O)cc1C#Cc1ccc(NS(C)(=O)=O)cc1C` [IB-L2-1.15, N-(4-((5-(2,4-dioxo-3,4-dihydropyrimidin-1(2H)-yl)-3-iodo-2-methoxyphenyl)ethynyl)-3-methylphenyl)methanesulfonamide], the concentration for half-maximal inhibition (IC50) in series [3] and in series [4] was 100 to 1000 nM in each case. Further, the 50% effective concentration (EC50) is 100 to 1000 nM in series [1] and greater than 1000 nM in series [2].
For the compound `COc1c(C#Cc2ccc(NS(C)(=O)=O)c3ccccc23)cc(-n2ccc(=O)[nH]c2=O)cc1C(C)(C)C` [IB-L2-2.1, N-(4-((3-tert-butyl-5-(2,4-dioxo-3,4-dihydropyrimidin-1(2H)-yl)-2-methoxyphenyl)ethynyl)-naphthalen-1-yl)methanesulfonamide], the IC50 in series [3] and in series [4] was 10 to 100 nM throughout. Moreover, the EC50 in series [1] and in series [2] was 100 to 1000 nM each time.
Turning to `COc1c(C(=O)Nc2ccc(NS(C)(=O)=O)cc2)cc(-n2ccc(=O)[nH]c2=O)cc1C(C)(C)C` [IB-L3-1.1, 3-tert-butyl-5-(2,4-dioxo-3,4-dihydropyrimidin-1(2H)-yl)-2-methoxy-N-(4-(methylsulfon amido)phenyl)benzamide], the IC50 in series [3] and in series [4] was 10 to 100 nM in each case. Also, the EC50 in series [1] lay within 10 to 100 nM; in series [2], 100 to 1000 nM.
Turning to `CC(C)(C)c1cc(-n2ccc(=O)[nH]c2=O)cc(C(=O)Nc2ccc(NS(C)(=O)=O)cc2)c1O` [IB-L3-1.2, 3-tert-butyl-5-(2,4-dioxo-3,4-dihydropyrimidin-1(2H)-yl)-2-hydroxy-N-(4-(methylsulfonamide)phenyl)benzamide], the 50% inhibitory concentration (IC50) in series [3] was 10 to 100 nM; in series [4], less than 10 nM. For the same compound, the EC50 in series [1] fell in the range of 10 to 100 nM; in series [2], 100 to 1000 nM.
For `Cc1cc(=O)[nH]c(=O)n1-c1cc(C(=O)Nc2ccc(NS(C)(=O)=O)cc2)c(O)c(C(C)(C)C)c1` [IB-L3-1.4, 3-tert-butyl-2-hydroxy-5-(6-methyl-2,4-dioxo-3,4-dihydropyrimidin-1(2H)-yl)-N-(4-(methylsulfonamido)phenyl)benzamide], the IC50 was in the range of 100 to 1000 nM in series [3] and 10 to 100 nM in series [4]. The 50% effective concentration (EC50) in series [1] and in series [2] was greater than 1000 nM each time.
As for `COc1cc(NS(C)(=O)=O)ccc1C(=O)Nc1cc(-n2ccc(=O)[nH]c2=O)cc(C(C)(C)C)c1OC` [IB-L4-1.1, N-(3-tert-butyl-5-(2,4-dioxo-3,4-dihydropyrimidin-1(2H)-yl)-2-methoxyphenyl)-2-methoxy-4-(methylsulfonamido)benzamide], the half-inhibitory concentration (IC50) in series [3] was less than 10 nM; in series [4], 10 to 100 nM. Moreover, the concentration giving a half-maximal response (EC50) in series [1] lay in the range of 10 to 100 nM; in series [2] it was 100 to 1000 nM.
Regarding `NC(=O)c1ncn([C@@H]2O[C@H](CO)[C@@H](O)[C@H]2O)n1` [ribavirin], the “suppression of HCV levels / effectiveness” value with HCV is “does not effectively suppress HCV levels”.

The values above are taken from patent publication US8415351B2 (priority 2007, dated 2013).
